pIC50: −log10 of the molar value.
Experiments:
Assay type in all cases: cell-based
[1] = target: T1, human Nav1.5 channels stably expressed in HEK 293 cells (Homo sapiens, UniProt Q14524); test: IonWorks Quattro automated patch-clamp, sodium current, inactivated state block; details: selectivity over Nav1.5
T1 construct: expressed in transfected cells
Protocol: (§1) Compounds were tested on human Nav1.7 and Nav1.5 channels stably expressed in HEK 293 cells. […] Cells were sealed on a planar substrate using the Population Patch Plate (PPC) technology. Electrical access was obtained using both nystatin and amphotericin. A double-pulse protocol was used for the determination of IC50 values for inactivated state block. Nav1.7 and Nav1.5 expressing cells were voltage clamped at −100 mV and −110 mV, respectively. A depolarizing prepulse to −10 mV (Nav1.7) or −30 mV (Nav1.5) for 1000 ms followed by a 10 ms repolarization to −100 mV (Nav1.7) or −110 mV (Nav1.5) was given to generate fractional channel inactivation of ˜50%, followed by a 10 ms test pulse to −10 mV (Nav1.7) or −30 mV (Nav1.5) to measure peak current in control conditions and after compound addition. The following recording solutions were used (mM). External: 150 NaCl, 2 CaCl2, 5 KCl, 1 Mg Cl2, 10 HEPES, 12 Dextrose; internal: 120 CsF, 30 CsCl, 10 EGTA, 5 HEPES, 5 NaF, 2 MgCl2.
(§2) For all electrophysiology experiments, offline analysis was used to correct for current rundown and to determine percent inhibition as a function of drug concentration. IC50 values were determined by fitting to the Hill equation.

[2] = target: T2, human Nav1.7 channels stably expressed in HEK 293 cells (Homo sapiens, UniProt Q15858); test: as above; details: read-out: potency for the Nav 1.7 sodium ion channel (as measured by IonWorks)
T2 construct: expressed in transfected cells
Protocol: as §1, §2

[3] = target: T1, human Nav1.5 channels stably expressed in HEK 293 cells; test: PatchXpress 7000 automated patch-clamp, sodium current; details: selectivity over Nav1.5
Summary of the method: (§3)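 IC50 values came from Hill-equation fits of rundown-corrected inhibition. PatchXpress recordings at 22° C held cells 20 mV negative to V0.5 inact and applied 10 Hz trains of 30 ms steps to −20 mV (Nav1.7) or an 8000 ms prepulse 7 mV positive to V0.5 inact. […]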

[4] = target: T2, human Nav1.7 channels stably expressed in HEK 293 cells; test: as above; details: 22° C., read-out: potency for the Nav 1.7 sodium ion channel (as measured by PatchXpress)
Summary of the method: as §3

T1 sequence (Q14524 whole entry): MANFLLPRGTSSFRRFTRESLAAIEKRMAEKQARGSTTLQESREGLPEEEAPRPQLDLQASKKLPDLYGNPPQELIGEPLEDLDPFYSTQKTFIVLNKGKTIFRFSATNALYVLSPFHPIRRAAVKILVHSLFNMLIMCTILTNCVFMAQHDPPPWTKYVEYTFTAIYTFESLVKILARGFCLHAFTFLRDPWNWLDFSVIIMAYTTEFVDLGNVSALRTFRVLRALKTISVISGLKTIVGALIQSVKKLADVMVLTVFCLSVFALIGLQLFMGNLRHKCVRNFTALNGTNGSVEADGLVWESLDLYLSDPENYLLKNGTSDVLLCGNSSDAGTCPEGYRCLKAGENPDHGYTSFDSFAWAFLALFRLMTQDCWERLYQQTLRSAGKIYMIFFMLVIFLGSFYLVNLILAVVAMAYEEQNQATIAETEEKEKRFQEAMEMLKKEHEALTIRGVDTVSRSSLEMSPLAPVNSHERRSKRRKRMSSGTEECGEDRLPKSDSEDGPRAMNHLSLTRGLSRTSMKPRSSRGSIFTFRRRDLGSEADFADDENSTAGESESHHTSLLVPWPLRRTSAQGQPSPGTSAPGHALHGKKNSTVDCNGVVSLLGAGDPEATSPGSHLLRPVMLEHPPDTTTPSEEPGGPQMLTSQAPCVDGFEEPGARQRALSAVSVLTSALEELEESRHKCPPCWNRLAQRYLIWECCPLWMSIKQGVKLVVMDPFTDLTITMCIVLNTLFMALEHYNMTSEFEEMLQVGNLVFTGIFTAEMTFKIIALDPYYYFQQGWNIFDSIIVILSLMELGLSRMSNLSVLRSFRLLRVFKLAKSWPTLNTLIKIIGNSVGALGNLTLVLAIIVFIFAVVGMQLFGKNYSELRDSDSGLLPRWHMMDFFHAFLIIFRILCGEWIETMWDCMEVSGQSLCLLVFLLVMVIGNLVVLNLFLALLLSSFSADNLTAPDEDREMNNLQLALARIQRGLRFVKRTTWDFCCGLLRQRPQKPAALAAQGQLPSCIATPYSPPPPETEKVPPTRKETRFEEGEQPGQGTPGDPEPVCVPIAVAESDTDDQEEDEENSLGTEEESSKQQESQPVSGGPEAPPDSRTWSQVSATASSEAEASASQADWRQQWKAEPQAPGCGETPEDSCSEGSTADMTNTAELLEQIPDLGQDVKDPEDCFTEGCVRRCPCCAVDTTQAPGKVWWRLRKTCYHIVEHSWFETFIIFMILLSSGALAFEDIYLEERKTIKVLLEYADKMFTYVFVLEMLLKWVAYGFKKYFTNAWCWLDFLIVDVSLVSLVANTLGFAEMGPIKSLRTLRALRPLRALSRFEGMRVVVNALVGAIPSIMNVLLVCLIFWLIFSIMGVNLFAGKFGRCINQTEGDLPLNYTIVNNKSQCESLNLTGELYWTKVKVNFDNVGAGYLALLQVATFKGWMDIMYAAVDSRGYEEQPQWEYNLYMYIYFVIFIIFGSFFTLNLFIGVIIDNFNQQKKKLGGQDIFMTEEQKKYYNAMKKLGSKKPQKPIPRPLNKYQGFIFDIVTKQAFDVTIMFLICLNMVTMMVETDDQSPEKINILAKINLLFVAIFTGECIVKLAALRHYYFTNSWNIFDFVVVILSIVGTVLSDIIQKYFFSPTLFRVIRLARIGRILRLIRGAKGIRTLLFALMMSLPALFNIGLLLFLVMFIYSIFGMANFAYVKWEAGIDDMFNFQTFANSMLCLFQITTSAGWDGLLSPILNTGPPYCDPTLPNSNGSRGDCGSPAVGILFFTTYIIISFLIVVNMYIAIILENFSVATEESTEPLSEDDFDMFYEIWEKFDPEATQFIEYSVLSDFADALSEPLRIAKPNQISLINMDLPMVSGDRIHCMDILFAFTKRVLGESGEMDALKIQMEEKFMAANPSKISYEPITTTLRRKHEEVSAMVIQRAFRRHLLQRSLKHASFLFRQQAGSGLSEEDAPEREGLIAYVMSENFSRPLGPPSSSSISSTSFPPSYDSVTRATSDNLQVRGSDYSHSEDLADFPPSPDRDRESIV
T2 sequence (Q15858 whole entry): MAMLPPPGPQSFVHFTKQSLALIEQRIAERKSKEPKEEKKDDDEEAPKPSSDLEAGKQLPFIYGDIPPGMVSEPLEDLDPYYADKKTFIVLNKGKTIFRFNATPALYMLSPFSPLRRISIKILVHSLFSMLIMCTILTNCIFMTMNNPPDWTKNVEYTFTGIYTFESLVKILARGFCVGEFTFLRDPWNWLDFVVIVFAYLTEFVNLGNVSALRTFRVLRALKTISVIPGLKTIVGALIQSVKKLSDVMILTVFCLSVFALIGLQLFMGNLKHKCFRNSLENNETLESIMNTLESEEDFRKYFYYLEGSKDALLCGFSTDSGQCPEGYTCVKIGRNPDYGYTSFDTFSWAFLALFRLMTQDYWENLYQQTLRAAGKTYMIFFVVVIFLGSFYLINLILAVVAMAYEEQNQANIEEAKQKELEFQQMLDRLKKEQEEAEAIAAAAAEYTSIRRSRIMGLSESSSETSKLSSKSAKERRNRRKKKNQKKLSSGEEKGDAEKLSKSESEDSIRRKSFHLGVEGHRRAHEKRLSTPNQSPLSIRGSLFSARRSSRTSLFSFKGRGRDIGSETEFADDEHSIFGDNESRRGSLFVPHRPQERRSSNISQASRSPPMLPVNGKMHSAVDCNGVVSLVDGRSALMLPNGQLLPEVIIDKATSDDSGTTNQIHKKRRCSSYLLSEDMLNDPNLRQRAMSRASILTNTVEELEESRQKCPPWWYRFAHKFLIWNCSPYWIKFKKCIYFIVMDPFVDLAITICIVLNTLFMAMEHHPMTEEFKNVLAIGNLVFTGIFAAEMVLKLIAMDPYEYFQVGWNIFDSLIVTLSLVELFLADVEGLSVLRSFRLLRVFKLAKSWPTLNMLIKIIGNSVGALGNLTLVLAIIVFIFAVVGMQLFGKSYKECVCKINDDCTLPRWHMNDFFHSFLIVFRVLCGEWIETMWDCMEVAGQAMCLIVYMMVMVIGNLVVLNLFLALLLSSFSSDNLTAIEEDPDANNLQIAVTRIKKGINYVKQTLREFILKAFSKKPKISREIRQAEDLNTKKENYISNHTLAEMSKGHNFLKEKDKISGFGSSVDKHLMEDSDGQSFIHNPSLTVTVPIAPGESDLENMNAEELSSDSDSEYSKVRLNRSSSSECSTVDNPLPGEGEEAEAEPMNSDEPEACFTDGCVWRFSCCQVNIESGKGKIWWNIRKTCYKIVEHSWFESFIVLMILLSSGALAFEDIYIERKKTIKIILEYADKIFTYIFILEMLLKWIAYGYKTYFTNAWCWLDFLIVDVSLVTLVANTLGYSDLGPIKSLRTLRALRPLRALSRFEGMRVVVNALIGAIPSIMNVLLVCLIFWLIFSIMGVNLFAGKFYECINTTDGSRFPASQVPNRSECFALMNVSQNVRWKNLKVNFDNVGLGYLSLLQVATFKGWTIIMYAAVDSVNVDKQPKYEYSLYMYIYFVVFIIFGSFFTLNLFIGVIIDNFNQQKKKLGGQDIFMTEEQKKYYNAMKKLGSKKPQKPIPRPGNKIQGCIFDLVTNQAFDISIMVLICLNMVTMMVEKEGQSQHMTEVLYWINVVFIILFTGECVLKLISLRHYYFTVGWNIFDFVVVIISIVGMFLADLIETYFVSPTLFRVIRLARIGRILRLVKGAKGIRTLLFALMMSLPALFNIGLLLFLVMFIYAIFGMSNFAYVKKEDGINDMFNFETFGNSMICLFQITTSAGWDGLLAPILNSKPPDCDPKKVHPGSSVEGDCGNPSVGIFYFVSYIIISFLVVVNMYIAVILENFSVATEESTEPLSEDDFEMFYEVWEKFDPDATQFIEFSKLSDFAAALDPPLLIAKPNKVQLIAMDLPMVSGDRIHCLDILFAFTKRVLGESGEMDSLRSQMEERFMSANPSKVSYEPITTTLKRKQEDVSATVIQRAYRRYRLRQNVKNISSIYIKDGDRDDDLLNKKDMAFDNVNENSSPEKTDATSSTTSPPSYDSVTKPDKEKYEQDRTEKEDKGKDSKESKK

Structure (SMILES) | ratio of Nav 1.5:Nav 1.7 potency, determined by IonWorks measurement [1] | pIC50 [2] | ratio of Nav 1.5:Nav 1.7 potency, determined by PatchXpress measurement [3] | pIC50 [4]
O=c1oc2cc(S(=O)(=O)Nc3ncns3)ccc2n1Cc1cccc2c1CN(CC1CC1)CC2 [Compound 6-4, 3-{[2-(cyclopropylmethyl)-1,2,3,4-tetrahydroisoquinolin-8-yl]methyl}-2-oxo-N-1,2,4-thiadiazol-5-yl-2,3-dihydro-1,3-benzoxazole-6-sulfonamide] | 54 | 6.33 | 37 | 6.20
C[C@@H](c1cccc2c1CNCC2)n1c(=O)oc2cc(S(=O)(=O)Nc3ncns3)ccc21 [Compound 4-15, 2-oxo-3-[(1S)-1-(1,2,3,4-tetrahydroisoquinolin-8-yl)ethyl]-N-1,2,4-thiadiazol-5-yl-2,3-dihydro-1,3-benzoxazole-6-sulfonamide] | > 451 | 7.14 | > 87 | 6.46
CS(=O)(=O)N1CCc2cccc(Cn3c(=O)oc4cc(S(=O)(=O)Nc5ncns5)ccc43)c2C1 [Compound 8-4, 3-{[2-(Methylsulfonyl)-1,2,3,4-tetrahydroisoquinolin-8-yl]methyl}-2-oxo-N-(1,2,4-thiadiazol-5-yl)-2,3-dihydro-1,3-benzoxazole-6-sulfonamide] | 20 | 6.28 | > 1180 | 6.60
NC/C=C/c1cc(Cl)ccc1Cn1c(=O)oc2cc(S(=O)(=O)Nc3ncns3)ccc21 [Compound 3-11, 3-{2-[(1E)-3-aminoprop-1-en-1-yl]-4-chlorobenzyl}-2-oxo-N-1,2,4-thiadiazol-5-yl-2,3-dihydro-1,3-benzoxazole-6-sulfonamide] | > 56 | 6.22 | 87 | 6.66
O=C(C1CC1)N1CCc2cccc(Cn3c(=O)oc4cc(S(=O)(=O)Nc5ncns5)ccc43)c2C1 [Compound 10-1, 3-{[2-(Cyclopropylcarbonyl)-1,2,3,4-tetrahydroisoquinolin-8-yl]methyl}-2-oxo-N-1,2,4-thiadiazol-5-yl-2,3-dihydro-1,3-benzoxazole-6-sulfonamide] | > 50 | 6.18 | 14 | 6.22
O=c1oc2cc(S(=O)(=O)Nc3ncns3)ccc2n1Cc1ccc(Cl)cc1 [Compound 1-13, 3-(4-chlorobenzyl)-2-oxo-N-1,2,4-thiadiazol-5-yl-2,3-dihydro-1,3-benzoxazole-6-sulfonamide] | > 34 | 6.01 | > 34 | 6.01
C[C@H](c1cccc2c1CNCC2)n1c(=O)oc2cc(S(=O)(=O)Nc3ncns3)c(F)cc21 [Compound 13-2, 5-Fluoro-2-oxo-3-[(1R)-1-(1,2,3,4-tetrahydroisoquinolin-8-yl)ethyl]-N-(1,2,4-thiadiazol-5-yl)-2,3-dihydro-1,3-benzoxazole-6-sulfonamide] | 2604 | 8.40 | 357 | 7.59
C[C@H](c1cccc2c1CNCC2)n1c(=O)oc2cc(S(=O)(=O)Nc3ncns3)ccc21 [Compound 4-4, 2-Oxo-3-[(1R)-1-(1,2,3,4-tetrahydroisoquinolin-8-yl)ethyl]-N-(1,2,4-thiadiazol-5-yl)-2,3-dihydro-1,3-benzoxazole-6-sulfonamide] | 4494 | 8.30 | > 1153 | 7.59
C[C@H](c1ccccc1)n1c(=O)oc2cc(S(=O)(=O)Nc3ncns3)c(F)cc21 [Compound 13-3, 5-fluoro-2-oxo-3-[(1R)-1-phenylethyl]-N-1,2,4-thiadiazol-5-yl-2,3-dihydro-1,3-benzoxazole-6-sulfonamide] | 418 | 7.68 | 162 | 7.38
CC(=O)N1CCc2cccc(Cn3c(=O)oc4cc(S(=O)(=O)Nc5ncns5)ccc43)c2C1 [Compound 9-1, 3-[(2-Acetyl-1,2,3,4-tetrahydroisoquinolin-8-yl)methyl]-2-oxo-N-(1,2,4-thiadiazol-5-yl)-2,3-dihydro-1,3-benzoxazole-6-sulfonamide] | 35 | 6.20 | > 57 | 6.28
CN1CCc2cccc(Cn3c(=O)oc4cc(S(=O)(=O)Nc5ncns5)ccc43)c2C1 [Compound 6-1, 3-[(2-Methyl-1,2,3,4-tetrahydroisoquinolin-8-yl)methyl]-2-oxo-N-(1,2,4-thiadiazol-5-yl)-2,3-dihydro-1,3-benzoxazole-6-sulfonamide] | 88 | 6.44 | > 35 | 6.06
O=c1oc2cc(S(=O)(=O)Nc3ncns3)ccc2n1Cc1ccccc1C1=CC2CCC(C1)N2 (stereo not shown) [Compound 3-7, 3-[2-(8-azabicyclo[3.2.1]oct-2-en-3-yl)benzyl]-2-oxo-N-1,2,4-thiadiazol-5-yl-2,3-dihydro-1,3-benzoxazole-6-sulfonamide] | > 113 | 6.53 | > 219 | 6.86
NC/C=C/c1ccccc1Cn1c(=O)oc2cc(S(=O)(=O)Nc3ncns3)ccc21 [Compound 3-3, 3-{2-[(1E)-3-Aminoprop-1-en-1-yl]benzyl}-2-oxo-N-(1,2,4-thiadiazol-5-yl)-2,3-dihydro-1,3-benzoxazole-6-sulfonamide] | 65 | 6.67 | > 89 | 6.47
C[C@H](c1ccccc1)n1c(=O)oc2cc(S(=O)(=O)Nc3ncns3)ccc21 [Compound 4-7, 2-oxo-3-[(1R)-1-phenylethyl]-N-1,2,4-thiadiazol-5-yl-2,3-dihydro-1,3-benzoxazole-6-sulfonamide] | 28 | 6.17 | 287 | 7.13
C[C@@H](c1ccccc1)n1c(=O)oc2cc(S(=O)(=O)Nc3ncns3)c(F)cc21 [Compound 13-4, 5-fluoro-2-oxo-3-[(1S)-1-phenylethyl]-N-1,2,4-thiadiazol-5-yl-2,3-dihydro-1,3-benzoxazole-6-sulfonamide] | 78 | 6.80 | 27 | 6.78
CC(c1ccccc1)n1c(=O)oc2cc(S(=O)(=O)Nc3ncns3)ccc21 (stereo not shown) [Compound 4-6, 2-oxo-3-(1-phenylethyl)-N-1,2,4-thiadiazol-5-yl-2,3-dihydro-1,3-benzoxazole-6-sulfonamide] | > 35 | 6.02 | > 88 | 6.47
CCN1CCc2cccc(Cn3c(=O)oc4cc(S(=O)(=O)Nc5ncns5)ccc43)c2C1 [Compound 6-2, 3-[(2-ethyl-1,2,3,4-tetrahydroisoquinolin-8-yl)methyl]-2-oxo-N-1,2,4-thiadiazol-5-yl-2,3-dihydro-1,3-benzoxazole-6-sulfonamide] | > 98 | 6.47 | 71 | 6.63
O=c1oc2cc(S(=O)(=O)Nc3ncns3)ccc2n1Cc1ccccc1 [Compound 1-10, 3-benzyl-2-oxo-N-1,2,4-thiadiazol-5-yl-2,3-dihydro-1,3-benzoxazole-6-sulfonamide] | > 41 | 6.10 | > 62 | 6.31
O=c1oc2cc(S(=O)(=O)Nc3ncns3)c(F)cc2n1C(c1ccccc1)C1CC1 (stereo not shown) [Compound 13-5, 3-[cyclopropyl(phenyl)methyl]-5-fluoro-2-oxo-N-1,2,4-thiadiazol-5-yl-2,3-dihydro-1,3-benzoxazole-6-sulfonamide] | > 300 | 6.96 | > 30 | 6.84

— patent publication US9273040B2 (Merck Sharp & Dohme Corp., priority 2011, dated 2016)
